# Assay results reported in PubChem BioAssay AID2060492 (Molecular Pharmacology Branch, DTP, NCI, 2025).
# pIC50: −log10 of the molar value.
# System: 695427-040-R-J1-PDC complex spheroids, viability percent T/C
# Experiment: Anticancer human tumor 695427-040-R-J1-PDC patient-derived colon adenocarcinoma cell line growth inhibition [GQUAD]
# Settings: for pIC50: curve of first compound; for viability, T/C: stronger effect = lower value
# Source text: DNA G-quadruplex Stabilizer Agents in Combinations in Complex Spheroids
# A high-throughput screen of multi-cell type tumor spheroids was designed to identify active combinations of DNA G-quadruplex stabilizer agents and targeted small molecules. Complex spheroids include a stromal component modeled by human endothelial cells (HUVEC) and fibroblasts modeled by human mesenchymal stem cells (MSCs). The concentration ranges selected for each drug and investigational agent were based upon clinically achievable concentrations if the clinical Cmax of the agent was known.
# Compounds. The drugs and investigational agents: pidnarulex (CX-5461; NSC782164), APTO-253 (NSC789042), BRACO-19 (NSC847499), peposertib (NSC802822), ceralasertib (NSC780249), elimusertib (NSC800525), camonsertib (NSC841442), AZD-1390 (NSC803789), olaparib (NSC753686), talazoparib (NSC767125), ART-558 (NSC835418), sotorasib (NSC818433), MRTX-1133 (NSC836407), SN-38 (NSC673596), topotecan (NSC609699), etoposide (NSC141540), doxorubicin (NSC123127), gemcitabine (NSC613327), 5-fluorouracil (NSC19893), paclitaxel (NSC125973), vemurafenib (NSC761431), panobinostat (NSC761190), R-306465 (JNJ-16241199; NSC773264), adavosertib (NSC754352), TP-3654 (NSC805149), carboplatin (NSC241240), KSQ-4279 (NSC840948), and staurosporine (NSC755774) were obtained from the National Cancer Institute (NCI) Developmental Therapeutics Program Chemical Repository (34). The FDA-approved anticancer drug set is available from the NCI Developmental Therapeutics Program. […] The stock solutions were prepared in dimethyl sulfoxide (DMSO, Sigma-Aldrich, St. Louis, MO, cat. D2650) at 800-fold the tested concentration and stored at -70 degrees C prior to their use. All drugs and investigational agents were tested over a range starting from a high concentration at or near the clinical Cmax and decreasing in half-log increments. If the clinical Cmax for an agent had not been determined, the highest concentration tested was 10 microM.
# 2.3 Cell Culture. All cells were maintained in an incubator at 37 degrees C and 5% CO2 with 95% humidity. The PDC lines were cultured according to standard operating procedures established by the NCI PDMR. All PDCs were thawed and cultured in Matrigel-coated flasks prepared with a working solution of 1X Ham's F-12 nutrient mix, without supplementation (Invitrogen, cat. 11765054), 100 U/mL penicillin-streptomycin (Invitrogen, cat. 15140122), and 2.5% Matrigel (Corning Inc., cat. 354248) for the first three passages. The 857933-349-R-J2-PDC line was cultured in 6C/Colon 1B media, which includes advanced DMEM/F-12 (Thermo Fisher Scientific, cat. 12634028), 10 mM HEPES (Thermo Fisher Scientific, cat. 15630080), 1X GlutaMAX supplement (Thermo Fisher Scientific, cat. 35050061), 0.1 mg/mL primocin (InvivoGen, cat. ant-pm-2), 10% defined fetal bovine serum, heat inactivated (HyClone Laboratories Inc., cat. SH30070.03HI), 50% L-WRN conditioned media (ATCC, cat. CRL-3276), 1.25 mM N-Acetyl-L-cysteine (Sigma-Aldrich, cat. A9165), 10 mM nicotinamide (Sigma-Aldrich, cat. N0636), 1X B-27 supplement (Thermo Fisher Scientific, cat. 17504044), 1X N-2 supplement (Thermo Fisher Scientific, cat. 17502048), 10 microM Y-27632 dihydrochloride (Tocris Bioscience, cat. 1254), and 50 ng/mL human EGF recombinant protein (Thermo Fisher Scientific, cat. PHG0311). The 485176-168-R4-J1-PDC line was cultured in Panc media, which includes all 6C/Colon 1B media components plus 100 ng/mL human FGF-10 (Thermo Fisher Scientific, cat. 100-26), 500 nM SB-431542 (Selleckchem, cat. S1067), and gastrin (Tocris, cat. 3006).
# […]
# [1] = second compound 0.0316 µM, first compound 0.0316 µM
# [2] = second compound 0.0316 µM, first compound 0.1 µM
# [3] = second compound 0.0316 µM, first compound 0.316 µM
# [4] = second compound 0.0316 µM, first compound 1 µM
# [5] = second compound 0.0316 µM, first compound 3.16 µM
# [6] = second compound 0.0316 µM, first compound 10 µM
# [7] = second compound 0.1 µM, first compound 0.0316 µM
# [8] = second compound 0.1 µM, first compound 0.1 µM
# [9] = second compound 0.1 µM, first compound 0.316 µM
# [10] = second compound 0.1 µM, first compound 1 µM
# [11] = second compound 0.1 µM, first compound 3.16 µM
# [12] = second compound 0.1 µM, first compound 10 µM
# [13] = second compound 0.316 µM, first compound 0.0316 µM
# [14] = second compound 0.316 µM, first compound 0.1 µM
# [15] = second compound 0.316 µM, first compound 0.316 µM
# [16] = second compound 0.316 µM, first compound 1 µM
# [17] = second compound 0.316 µM, first compound 3.16 µM
# [18] = second compound 0.316 µM, first compound 10 µM
# [19] = second compound 1 µM, first compound 0.0316 µM
# [20] = second compound 1 µM, first compound 0.1 µM
# [21] = second compound 1 µM, first compound 0.316 µM
# [22] = second compound 1 µM, first compound 1 µM
# [23] = second compound 1 µM, first compound 3.16 µM
# [24] = second compound 1 µM, first compound 10 µM
# [25] = second compound 3.16 µM, first compound 0.0316 µM
# [26] = second compound 3.16 µM, first compound 0.1 µM
# [27] = second compound 3.16 µM, first compound 0.316 µM
# [28] = second compound 3.16 µM, first compound 1 µM
# [29] = second compound 3.16 µM, first compound 3.16 µM
# [30] = second compound 3.16 µM, first compound 10 µM
# [31] = second compound 10 µM, first compound 0.0316 µM
# [32] = second compound 10 µM, first compound 0.1 µM
# [33] = second compound 10 µM, first compound 0.316 µM
# [34] = second compound 10 µM, first compound 1 µM
# [35] = second compound 10 µM, first compound 3.16 µM
# [36] = second compound 10 µM, first compound 10 µM
# 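Also: spheroids exposed to compounds for seven days before readout.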
smiles,measurement,setting,value
CC1COCCN1c1cc(C2(S(C)(=N)=O)CC2)nc(-c2ccnc3[nH]ccc23)n1 (centres undefined) + CN(C)c1ccc(Nc2c3ccc(NC(=O)CCN4CCCC4)cc3nc3cc(NC(=O)CCN4CCCC4)ccc23)cc1,pIC50,second compound 0.0316 µM,< 5.00
same,pIC50,second compound 0.1 µM,< 5.00
same,pIC50,second compound 0.316 µM,< 5.00
same,pIC50,second compound 1 µM,< 5.00
same,pIC50,second compound 3.16 µM,< 5.00
same,pIC50,second compound 10 µM,< 5.00
same,"viability, T/C",[1],104%
same,"viability, T/C",[2],96.5%
same,"viability, T/C",[3],106%
same,"viability, T/C",[4],97%
same,"viability, T/C",[5],95.5%
same,"viability, T/C",[6],69.4%
same,"viability, T/C",[7],109%
same,"viability, T/C",[8],93.8%
same,"viability, T/C",[9],110%
same,"viability, T/C",[10],86.1%
same,"viability, T/C",[11],87%
same,"viability, T/C",[12],74%
same,"viability, T/C",[13],103%
same,"viability, T/C",[14],91.4%
same,"viability, T/C",[15],94.3%
same,"viability, T/C",[16],83.7%
same,"viability, T/C",[17],87.5%
same,"viability, T/C",[18],69.9%
same,"viability, T/C",[19],93.3%
same,"viability, T/C",[20],96.4%
same,"viability, T/C",[21],100%
same,"viability, T/C",[22],93.1%
same,"viability, T/C",[23],91.5%
same,"viability, T/C",[24],68.5%
same,"viability, T/C",[25],95.8%
same,"viability, T/C",[26],101%
same,"viability, T/C",[27],103%
same,"viability, T/C",[28],90.8%
same,"viability, T/C",[29],93.4%
same,"viability, T/C",[30],69.6%
same,"viability, T/C",[31],86.7%
same,"viability, T/C",[32],91.8%
same,"viability, T/C",[33],91.9%
same,"viability, T/C",[34],88.1%
same,"viability, T/C",[35],86%
same,"viability, T/C",[36],69.8%
O=C(c1cc(Cc2n[nH]c(=O)c3ccccc23)ccc1F)N1CCN(C(=O)C2CC2)CC1 + CN(C)c1ccc(Nc2c3ccc(NC(=O)CCN4CCCC4)cc3nc3cc(NC(=O)CCN4CCCC4)ccc23)cc1,pIC50,second compound 0.0316 µM,< 5.00
same,pIC50,second compound 0.1 µM,< 5.00
same,pIC50,second compound 0.316 µM,< 5.00
same,pIC50,second compound 1 µM,< 5.00
same,pIC50,second compound 3.16 µM,< 5.00
same,pIC50,second compound 10 µM,< 5.00
same,"viability, T/C",[1],111%
same,"viability, T/C",[2],100%
same,"viability, T/C",[3],93.4%
same,"viability, T/C",[4],102%
same,"viability, T/C",[5],107%
same,"viability, T/C",[6],90.8%
same,"viability, T/C",[7],107%
same,"viability, T/C",[8],94.2%
same,"viability, T/C",[9],104%
same,"viability, T/C",[10],95.9%
same,"viability, T/C",[11],103%
same,"viability, T/C",[12],96%
same,"viability, T/C",[13],99.2%
same,"viability, T/C",[14],89.1%
same,"viability, T/C",[15],95.9%
same,"viability, T/C",[16],98.9%
same,"viability, T/C",[17],100%
same,"viability, T/C",[18],97.2%
same,"viability, T/C",[19],93.2%
same,"viability, T/C",[20],88.7%
same,"viability, T/C",[21],98.5%
same,"viability, T/C",[22],93.6%
same,"viability, T/C",[23],113%
same,"viability, T/C",[24],89.9%
same,"viability, T/C",[25],97.1%
same,"viability, T/C",[26],90.7%
same,"viability, T/C",[27],92.5%
same,"viability, T/C",[28],89.3%
same,"viability, T/C",[29],103%
same,"viability, T/C",[30],92%
same,"viability, T/C",[31],91.1%
same,"viability, T/C",[32],84.6%
same,"viability, T/C",[33],88%
same,"viability, T/C",[34],82.9%
same,"viability, T/C",[35],96.2%
same,"viability, T/C",[36],90.6%
